According to US20030232986A1, “Inhibitors of caspases” (Vertex Pharmaceuticals Incorporated, priority 1998, published 2003):
Like-named read-outs stand apart in the source and are kept apart here. Where a SMILES comes first, the peptide text is derived from it. The star is where a group is joined. Bz = O=C(c1ccccc1)*

Legend:
[1] = test system: Human whole blood, IL-1β production; test: Whole blood assay for IL-1β production; type: cell-based; settings: LPS-stimulated whole blood, IL-1β by ELISA
Method in brief: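 LPS-stimulated (5.0 ng/ml final) human whole blood incubated with test compound in saline (or plasma/PBS-5% DMSO for hydrophobic compounds) at 30° C for 16-18 hr. Plasma IL-1β then measured by ELISA at 1:200 dilution, against no-LPS, no-inhibitor and vehicle controls.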

[2] = target: T1, Caspase-1 (Homo sapiens, UniProt P29466); test: Caspase-1 enzyme inhibition (Ki); type: biochemical
T1 sequence (P29466 120-297 limits assumed): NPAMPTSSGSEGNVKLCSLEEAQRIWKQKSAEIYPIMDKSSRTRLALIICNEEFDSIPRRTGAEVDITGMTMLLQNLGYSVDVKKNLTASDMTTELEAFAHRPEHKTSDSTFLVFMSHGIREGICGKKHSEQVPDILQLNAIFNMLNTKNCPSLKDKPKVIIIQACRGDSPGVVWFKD
T1 sequence (P29466 317-404 limits assumed): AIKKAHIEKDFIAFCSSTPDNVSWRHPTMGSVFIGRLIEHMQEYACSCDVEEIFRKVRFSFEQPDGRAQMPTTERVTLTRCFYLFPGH
Method in brief: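 Ki obtained by fitting rate versus inhibitor concentration to the Morrison tight-binding equation for competitive inhibitors, with pNA release read at 405 nm at 37 °C. Substrate Suc-YVAD-pNA (80 μM final) added after 15 min enzyme–inhibitor preincubation in Tris pH 7.5 buffer with DTT and CHAPS.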

[3] = Single pass perfusion in rat: GI wall and liver metabolism, biliary excretion; type: in vitro ADME; settings: for f (g) Xf (h): GI wall metabolism f(g) x liver metabolism f(h)
Method: Single pass perfusion studies in rat were performed to assess gastrointestinal (GI) wall metabolism (f(g)), liver metabolism (f(h)), and biliary excretion. The method used has been described in Pang, C. S., J. Pharmacol. Exp. Therapeutics, 333, pp. 788-798 (1984).

[4] = target: T2, Caspase-3 (Homo sapiens, UniProt P42574); test: Caspase-3 enzyme inhibition (Ki); type: biochemical; settings: substrate Ac-DEVD-pNA 60 μM, 8% glycerol in buffer, 37° C.
T2 sequence (P42574 29-175 limits assumed): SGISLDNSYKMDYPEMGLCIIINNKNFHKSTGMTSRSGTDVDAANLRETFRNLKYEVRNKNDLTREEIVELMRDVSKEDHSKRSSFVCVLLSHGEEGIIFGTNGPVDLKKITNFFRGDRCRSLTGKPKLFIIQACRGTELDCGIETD
T2 sequence (P42574 176-277 limits assumed): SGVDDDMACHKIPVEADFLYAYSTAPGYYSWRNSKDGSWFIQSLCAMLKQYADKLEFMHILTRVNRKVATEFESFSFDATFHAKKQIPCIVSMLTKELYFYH
Method: Ki values for test compounds with the various caspases were obtained by the method of Margolin et al. (J. Biol. Chem., 272 pp. 7223-7228 (1997)). Assays were performed in 10 mM Tris (Sigma Corp, St Louis Mo.) pH 7.5, 1 mM Dithiothreitol (DTT, Research Organic INC, Cleveland, Ohio) and 0.1% CHAPS (Pierce, Rockford Ill.) at 37° C. For caspase-3, a solution of 8% glycerol was added to the assay buffer to improve enzyme stability. A 65 μL aliquot of the assay buffer and 5 μL aliquot of the appropriate dilutions of inhibitor in DMSO where pipetted into a 96 well plate, treated with 10 μL of caspase, then diluted in assay buffer (0.5-40 nM active protein by active site titration). A control containing DMSO but no compound was included for each determination. The plates were then incubated for 15 minutes at 37° C., before addition of the appropriate substrate (20 μL, final concentration 1-4×KM, final assay volume 100 μL) to initiate the reaction. Reaction rates were measured at 37° C. either by following the time dependant increase in absorbance at 405 nm (for the pNA substrates) or in fluorescence (Ex 390, Em 460) (for the AMC substrates). The rates obtained were plotted against inhibitor concentration and the data fit to the Morrison tight-binding equation for competitive inhibitors (Morrison, J. F., Biochem. Biophys. Acta, 185 pp. 269-286 (1969)). The substrates used for the individual assays were as follows:
Caspase-3 Ac-DEVD-pNA (Bachem, King of Prussia, Pa.) (final concentration in assay, 60 μM)

[5] = test system: Human Peripheral Blood Mononuclear Cells (PBMC), mature IL-1β; test: PBMC cell assay: IL-1β assay with human peripheral blood mononuclear cells; type: cell-based; settings: LPS-stimulated human PBMC, mature IL-1β in supernatant by ELISA
Method in brief: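 Donor PBMC (suspension at 6×10^6 cells/ml) or adherent-enriched monocytes were stimulated with 5 ng/ml LPS (final) alongside 5–6 compound dilutions bracketing the ICE Ki, at 0.1% DMSO final, for 16–18 hr at 37° C, 5% CO2. Mature IL-1β in supernatants was measured by ELISA; IC50 was calculated relative to LPS-only controls.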

[6] = substrate Suc-YVAD-pNA 80 μM, 37° C., pH 7.5

With `COc1cc(NC(C)=O)c(Cl)cc1C(=O)N[C@@H](C)C(=O)N1CCC[C@H]1C(=O)N[C@H](C=O)CC(=O)O` [Example 122r, 3-({1-[2-(4-Acetylamino-5-chloro-2-methoxy-benzoylamino)-propionyl]-pyrrolidine-2-carbonyl}-amino)-4-oxo-butyric acid] the IC50 [1] was 2500 to 7500 nM, the Ki [2, 6] was 10 to 1000 nM and the “Biliary Excretion” value [3] was “A (category “A” indicates <5%)”. For the same molecule, the “f (g) Xf (h)” value [3] was “B (Category “B” indicates 0.25-0.49)”.
For `COc1c(C)cc(C(=O)N[C@@H](C)C(=O)N[C@@H](C)C(=O)N[C@H](C=O)CC(=O)O)cc1C` [Example 29o], the IC50 [1] was < 2500 nM, the Ki [2, 6] was 10 to 1000 nM and the “Biliary Excretion” value [3] was “A (category “A” indicates <5%)”. For the same molecule, the “f (g) Xf (h)” value [3] was “C (Category “C” indicates 0.5-0.75)”.
For `CC(C)[C@H](NC(=O)c1ccc(N)c(Cl)c1)C(=O)N[C@@H](C)C(=O)N[C@H](C=O)CC(=O)O` [Example 29r], the IC50 [1] was < 2500 nM, the Ki [2, 6] was < 10 nM and the “Biliary Excretion” value [3] was “B (Category “B” indicates 5-10%)”. The “f (g) Xf (h)” value [3] was “C (Category “C” indicates 0.5-0.75)”.
In the case of `COc1cc(N)c(Cl)cc1C(=O)N[C@@H](C)C(=O)N1CC(F)(F)C[C@H]1C(=O)N[C@H](C=O)CC(=O)O` [Example 27b], the IC50 [1] is reported as < 2500 nM, the Ki [2, 6] is reported as 10 to 1000 nM and the “Biliary Excretion” value [3] is reported as “A (category “A” indicates <5%)”. For the same molecule, the “f (g) Xf (h)” value [3] was “B (Category “B” indicates 0.25-0.49)”.
In the case of `CC(=O)Nc1ccc(C(=O)N[C@@H](C)C(=O)N2CCCC[C@H]2C(=O)N[C@H](C=O)CC(=O)O)cc1Cl` [Example 25e], the IC50 [1] is reported as > 7500 nM, the Ki [2, 6] is reported as < 10 nM and the “Biliary Excretion” value [3] is reported as “B (Category “B” indicates 5-10%)”. The “f (g) Xf (h)” value [3] was “C (Category “C” indicates 0.5-0.75)”.
With `COc1c(C)cc(C(=O)N[C@H](C(=O)N[C@@H](C)C(=O)N[C@H](C=O)CC(=O)O)C(C)C)cc1C` [Example 29p] the IC50 [1] was < 2500 nM, the Ki [2, 6] was < 10 nM and the “Biliary Excretion” value [3] was “C (Category “C” indicates >10%)”. For the same molecule, the “f (g) Xf (h)” value [3] was “B (Category “B” indicates 0.25-0.49)”.
With `C[C@H](NC(=O)c1ccc(N)c(Cl)c1)C(=O)N1CCCC[C@H]1C(=O)N[C@H](C=O)CC(=O)O` [Example 25d] the IC50 [1] was < 2500 nM, the Ki [2, 6] was < 10 nM and the “Biliary Excretion” value [3] was “C (Category “C” indicates >10%)”. The “f (g) Xf (h)” value [3] was “C (Category “C” indicates 0.5-0.75)”.
With `CC(=O)NC(CC(=O)O)C(=O)NC1CCN(C(CC(C)C)C(=O)NC(C=O)CC(=O)O)C1=O` (stereo not drawn) [Example 32d] the Ki [4] was 10 to 1000 nM and the Ki [2, 6] was > 1000 nM.
With `CC(C)[C@H](NC(=O)c1nccc2ccccc12)C(=O)N[C@@H](C)C(=O)N[C@H](C=O)CC(=O)O` [Example 29b] the Ki [4] was > 1000 nM, the IC50 [5] was 1000 to 2000 nM and the Ki [2, 6] was < 10 nM. The “Biliary Excretion” value [3] was “B (Category “B” indicates 5-10%)” and the “f (g) Xf (h)” value [3] was “A (category “A” indicates <0.25)”.
For `COc1ccc(C(=O)N[C@H](C(=O)N[C@@H](C)C(=O)N[C@H](C=O)CC(=O)O)C(C)C)cc1` [Example 29n], the IC50 [1] was 2500 to 7500 nM, the Ki [2, 6] was 10 to 1000 nM and the “Biliary Excretion” value [3] was “A (category “A” indicates <5%)”. For the same molecule, the “f (g) Xf (h)” value [3] was “C (Category “C” indicates 0.5-0.75)”.
For `C[C@H](NC(=O)c1ccc(N)c(Cl)c1)C(=O)N[C@@H](C)C(=O)N[C@H](C=O)CC(=O)O` [Example 29q], the IC50 [1] was < 2500 nM, the Ki [2, 6] was < 10 nM and the “Biliary Excretion” value [3] was “A (category “A” indicates <5%)”. The “f (g) Xf (h)” value [3] was “C (Category “C” indicates 0.5-0.75)”.
With `COc1cc(N)c(Cl)cc1C(=O)N[C@@H](C)C(=O)N1CCC[C@H]1C(=O)N[C@H](C=O)CC(=O)O` [Example 7ac] the IC50 [1] was 2500 to 7500 nM, the Ki [2, 6] was 10 to 1000 nM and the “Biliary Excretion” value [3] was “C (Category “C” indicates >10%)”. The “f (g) Xf (h)” value [3] was “C (Category “C” indicates 0.5-0.75)”.
For `COC(=O)N[C@@H]1C[C@@H](C(=O)N[C@H](C=O)CC(=O)O)N(C(=O)[C@@H](NC(=O)c2nccc3ccccc23)C(C)C)C1` [Example 9f], the IC50 [5] was 500 to 1000 nM, the IC50 [1] was < 2500 nM and the Ki [2, 6] was < 10 nM.
For `COC1CC(C(=O)NC(C=O)CC(=O)O)N(C(=O)C(C)NC(=O)c2ccc(N)c(Cl)c2)C1` (stereo not drawn) [Example 23i, 3-({1-[2-(4-amino-3-chloro-benzoylamino)-propionyl]-4-methoxy-pyrrolidine-2-carbonyl}-amino)-4-oxo-butyric acid], the IC50 [5] was < 500 nM, the IC50 [1] was 2500 to 7500 nM and the Ki [2, 6] was 10 to 1000 nM.
In the case of `CC(C)[C@H](NC(=O)c1ccccc1)C(=O)N1CCC[C@H]1C(=O)N[C@H](C=O)CC(=O)O` [Example 5e] (Bz-Val-Pro-Asp-aldehyde), the IC50 [5] is reported as 500 to 1000 nM, the IC50 [1] is reported as < 2500 nM and the Ki [2, 6] is reported as 10 to 1000 nM.
`COc1ccc(C(=O)N[C@H](C(=O)N2C[C@H](NC(C)=O)C[C@H]2C(=O)N[C@H](C=O)CC(=O)O)C(C)C)cc1` [Example 9a] gave an IC50 [5] of 500 to 1000 nM, an IC50 [1] of 2500 to 7500 nM and a Ki [2, 6] of 10 to 1000 nM.
With `CC(C)(C)[C@H](NC(=O)c1nccc2ccccc12)C(=O)N1CCCC[C@H]1C(=O)N[C@H](C=O)CC(=O)O` [Example 25c] the IC50 [5] was 500 to 1000 nM, the IC50 [1] was 2500 to 7500 nM and the Ki [2, 6] was < 10 nM.
For `CC(C)[C@H](NC(=O)c1cccc(Oc2ccccc2)c1)C(=O)N1CCC[C@H]1C(=O)N[C@H](C=O)CC(=O)O` [Example 5ay], the IC50 [5] was 500 to 1000 nM, the IC50 [1] was 2500 to 7500 nM and the Ki [2, 6] was < 10 nM.
With `C[C@H](NC(=O)c1ccc(N(C)C)cc1)C(=O)N1CCC[C@H]1C(=O)N[C@H](C=O)CC(=O)O` [Example 7s] the IC50 [5] was 500 to 1000 nM, the IC50 [1] was 2500 to 7500 nM and the Ki [2, 6] was 10 to 1000 nM.
With `CCCCCCc1ccc(C(=O)N[C@H](C(=O)N2CCC[C@H]2C(=O)N[C@H](C=O)CC(=O)O)C(C)C)cc1` [Example 5z] the IC50 [5] was 500 to 1000 nM, the IC50 [1] was > 7500 nM and the Ki [2] was < 10 nM. For the same molecule, the Ki [2, 6] was < 10 nM.
For `C[C@H](NC(=O)c1ccc(Cl)c(N)c1)C(=O)N1CCC[C@H]1C(=O)N[C@H](C=O)CC(=O)O` [Example 7h], the IC50 [5] was 500 to 1000 nM, the IC50 [1] was < 2500 nM and the Ki [2, 6] was 10 to 1000 nM.
In the case of `CC(=O)Nc1c(Cl)cc(C(=O)N[C@@H](C)C(=O)N2CCC[C@H]2C(=O)N[C@H](C=O)CC(=O)O)cc1Cl` [Example 7z], the IC50 [5] is reported as 1000 to 2000 nM, the IC50 [1] is reported as < 2500 nM and the Ki [2, 6] is reported as 10 to 1000 nM.
